6 molecules from patent US8906925B2, “Pyrido[4,3-B]indoles containing rigid moieties” (Medivation Technologies, Inc., priority 2008, dated 2014) can be followed below.

As usually defined, the inhibition is the relative decrease from the control value, in per cent. What is called IC50 is the concentration that gives 50% inhibition.

The target in assay [1] is T1, human recombinant histamine H2 receptor (Homo sapiens, UniProt P25021).
T1 construct: expressed in transfected cells; host or cells: Chinese hamster ovary (CHO) K1 cells
In words: Histamine H2 radioligand binding ([125I]Aminopotentidine). The note with it: read-out: Histamine Binding (1 μM) H2, percent inhibition of specific binding, 1 μM. In short, it runs like this: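 CHO-K1 cells expressing human recombinant H2 receptor, 50 mM phosphate buffer pH 7.4; compounds incubated with 0.1 nM [125I]aminopotentidine for 120 min at 25 °C. Nonspecific binding defined with 3 μM tiotidine; specifically bound radioligand counted after filtration and washing.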

Assay [2] concerns the target T2, human recombinant serotonin (5-Hydroxytryptamine) 5-HT2A receptor (Homo sapiens, UniProt P28223).
T2 construct: expressed in transfected cells; host or cells: Chinese hamster ovary (CHO-K1) cells
In words: Serotonin 5-HT2A radioligand binding ([3H]Ketanserin). The note with it: for inhibition at 0.1 µM: read-out: Inhibition of ligand binding, Serotonin 5-HT2A (percent inhibition of specific binding), compound at 0.1 μM; for inhibition at 1 µM: read-out: Inhibition of ligand binding, Serotonin 5-HT2A (percent inhibition of specific binding), compound at 1 μM. Here is the method:
Compounds of the invention were incubated with 0.5 nM [^3H]Ketanserin for 60 min. at 25° C. Non-specific binding was estimated in the presence of 1 μM Mianserin. Receptor proteins were filtered and washed, the filters were then counted to determine [^3H]Ketanserin specifically bound.

The target in assay [3] is T3, human recombinant serotonin (5-Hydroxytryptamine) 5-HT6 receptor (Homo sapiens, UniProt P50406).
T3 construct: expressed in transfected cells; host or cells: human HeLa cells
In words: Serotonin 5-HT6 radioligand binding ([3H]LSD). The note with it: read-out: Inhibition of ligand binding, Serotonin 5-HT6 (percent inhibition of specific binding); for inhibition at 0.1 µM: compound at 0.1 μM; for inhibition at 1 µM: compound at 1 μM. Here is the method:
Compounds of the invention were incubated with 1.5 nM [3H]Lysergic acid diethylamide (LSD) for 120 min. at 37° C. […] Receptor proteins were filtered and washed, the filters were then counted to determine [3H]LSD specifically bound. Compounds were screened at 1 μM or lower, using 1% DMSO as vehicle. Biochemical assay results are presented as the percent inhibition of specific binding in Table 10.

Assay [4] concerns the target human dopamine D2L receptor (Homo sapiens, UniProt P14416). Briefly: Dopamine D2L radioligand binding ([3H]Spiperone). The note with it: percent inhibition of specific binding, compound at 1 μM; for Inhibition of ligand binding, Dopamine D2L: 1 µM; for inhibition at 1 µM: read-out: Inhibition of ligand binding, Dopamine D2L. The source says: Non-specific binding was estimated in the presence of […] Haloperidol. Receptor proteins were filtered and washed, the filters were then counted to determine [^3H]Spiperone specifically bound. […] Biochemical assay results are presented as the percent inhibition of specific binding in Table 9.

Assay [5] deals with human recombinant serotonin (5-Hydroxytryptamine) 5-HT7 receptor (Homo sapiens, UniProt P34969). In words: Serotonin 5-HT7 radioligand binding ([3H]LSD). To be noted: for inhibition at 0.1 µM: compound at 0.1 μM; for inhibition at 0.1 µM / inhibition at 1 µM: read-out: Inhibition of ligand binding, Serotonin 5-HT7 (percent inhibition of specific binding). From the text:
Receptor proteins were filtered and washed, the filters were then counted to determine [^3H]LSD specifically bound.

For another assay, the target named is histamine receptor H1 (Homo sapiens, UniProt P35367). Briefly: Histamine H1 radioligand binding ([3H]Pyrilamine). The note with it: for inhibition at 1 µM: read-out: Histamine Binding (1 μM) H1, percent inhibition of specific binding, 1 μM. In short, it runs like this:
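Values are percent inhibition of specific [3H]pyrilamine (1.2 nM) binding with compounds at ≤1 μM (1% DMSO vehicle); 180 min incubation at 25 °C, pH 7.4 Tris buffer, on CHO-expressed human H1 receptor; 1 μM pyrilamine defined nonspecific binding, bound ligand counted after filtration.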

Assay [6] concerns the target T4, human recombinant serotonin 5-HT1B receptor (Homo sapiens, UniProt P28222).
T4 construct: expressed in transfected cells; host or cells: CHO-K1 cell line, membrane extracts
In words: 5-HT1B radioligand binding competition assay ([3H]5-CT, CHO-K1 membranes). The note with it: for 5-HT1B (5 μM) % Binding relative to bound radioligand: in duplicate, average. Here is the method:
To determine the binding activity at the human recombinant serotonin 5-HT1B receptor of compounds of the invention, CHO-K1 cell line expressing the human 5-HT1B recombinant receptor was amplified to prepare membranes used for the radioligand binding assay throughout the study. Radioligand binding competition on 5-HT1B was performed by adding successively in the wells of a 96 well plate (Master Block, Greiner, 786201). […] The plate was incubated 60 min at 25° C. in a water bath and then filtered over GF/B filters (Perkin Elmer, 6005177, presoaked in 0.5% PE1 for 2 h at room temperature) with a Filtration unit (Perkin Elmer). The filters were washed 3× with 0.5 mL of ice-cold washing buffer (50 mM Tris pH 7.4). 50 μL Microscint 20 (Packard) was added and the plate was incubated 15 min on an orbital shaker and then counted with a TopCount™ for 1 min/well.
The reference value thus obtained for the test was compared to a historical value obtained from the same receptor and used to validate the experimental session. […] For replicate determinations, the maximum variability tolerated in the test was of +/−20% around the average of the replicates.
Compounds were tested for binding activity in the radioligand binding competition assay on human 5-HT1B receptor, at one concentration […], in duplicate. Dose-response data from test compounds were analyzed with XLfit (IDBS) software using nonlinear regression applied to a sigmoidal dose-response model.
Dose-response data was analyzed with XLfit (IDBS) software using non-linear regression applied to a sigmoidal dose-response model.

The target in assay [7] is T5, human recombinant serotonin (5-Hydroxytryptamine) 5-HT2C receptor (Homo sapiens, UniProt P28335).
T5 construct: expressed in transfected cells; host or cells: Chinese hamster ovary (CHO-K1) cells
T5 sequence (P28335 33-458): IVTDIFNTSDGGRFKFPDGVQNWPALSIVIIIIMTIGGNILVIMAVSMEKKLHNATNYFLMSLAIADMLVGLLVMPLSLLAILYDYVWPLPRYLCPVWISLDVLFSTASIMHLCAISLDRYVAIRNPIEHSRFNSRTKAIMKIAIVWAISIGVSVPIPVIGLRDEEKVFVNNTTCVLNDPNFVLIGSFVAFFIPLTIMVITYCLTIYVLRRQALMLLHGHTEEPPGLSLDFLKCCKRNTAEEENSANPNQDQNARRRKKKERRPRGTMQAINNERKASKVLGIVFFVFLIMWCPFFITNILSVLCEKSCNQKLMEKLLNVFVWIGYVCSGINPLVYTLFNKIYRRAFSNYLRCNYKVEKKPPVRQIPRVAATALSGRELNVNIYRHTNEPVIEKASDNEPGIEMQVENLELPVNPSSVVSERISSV
Briefly: Serotonin 5-HT2C radioligand binding ([3H]Mesulergine). The note with it: for inhibition at 0.1 µM: compound at 0.1 μM; for inhibition at 0.1 µM / inhibition at 1 µM: read-out: Inhibition of ligand binding, Serotonin 5-HT2C (percent inhibition of specific binding). In short, it runs like this: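 Compounds tested at 1 μM or lower (1% DMSO vehicle) for displacement of 1 nM [3H]Mesulergine over 60 min at 25° C. Specific binding determined by filtration counting, with 1 μM Mianserin defining non-specific binding; values are percent inhibition.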

histamine receptor H1, sequence (P35367 whole entry): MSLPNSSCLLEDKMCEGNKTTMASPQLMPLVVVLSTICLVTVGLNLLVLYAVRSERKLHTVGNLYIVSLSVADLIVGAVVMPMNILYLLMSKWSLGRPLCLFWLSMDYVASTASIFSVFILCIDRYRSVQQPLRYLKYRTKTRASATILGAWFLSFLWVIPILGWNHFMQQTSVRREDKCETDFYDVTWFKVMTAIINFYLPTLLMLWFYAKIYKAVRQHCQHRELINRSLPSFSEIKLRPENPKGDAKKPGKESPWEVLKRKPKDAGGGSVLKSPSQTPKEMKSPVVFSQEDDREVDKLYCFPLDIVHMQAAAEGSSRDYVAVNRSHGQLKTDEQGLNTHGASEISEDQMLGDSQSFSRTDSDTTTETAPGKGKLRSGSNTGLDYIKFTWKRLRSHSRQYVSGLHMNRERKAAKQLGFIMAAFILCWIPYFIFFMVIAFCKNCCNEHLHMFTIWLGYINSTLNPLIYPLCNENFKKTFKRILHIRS
T4 sequence (P28222 whole entry): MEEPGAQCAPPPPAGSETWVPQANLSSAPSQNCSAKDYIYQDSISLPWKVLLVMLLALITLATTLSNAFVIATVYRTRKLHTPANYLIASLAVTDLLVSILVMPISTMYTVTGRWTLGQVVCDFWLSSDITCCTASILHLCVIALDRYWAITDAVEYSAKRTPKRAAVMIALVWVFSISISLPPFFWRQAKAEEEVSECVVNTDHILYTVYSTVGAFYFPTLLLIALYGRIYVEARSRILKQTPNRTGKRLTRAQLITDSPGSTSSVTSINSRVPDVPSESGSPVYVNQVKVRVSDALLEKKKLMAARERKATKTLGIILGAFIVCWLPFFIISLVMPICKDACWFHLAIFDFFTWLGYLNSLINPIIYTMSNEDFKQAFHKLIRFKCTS
human recombinant serotonin (5-Hydroxytryptamine) 5-HT7 receptor, sequence (P34969 whole entry): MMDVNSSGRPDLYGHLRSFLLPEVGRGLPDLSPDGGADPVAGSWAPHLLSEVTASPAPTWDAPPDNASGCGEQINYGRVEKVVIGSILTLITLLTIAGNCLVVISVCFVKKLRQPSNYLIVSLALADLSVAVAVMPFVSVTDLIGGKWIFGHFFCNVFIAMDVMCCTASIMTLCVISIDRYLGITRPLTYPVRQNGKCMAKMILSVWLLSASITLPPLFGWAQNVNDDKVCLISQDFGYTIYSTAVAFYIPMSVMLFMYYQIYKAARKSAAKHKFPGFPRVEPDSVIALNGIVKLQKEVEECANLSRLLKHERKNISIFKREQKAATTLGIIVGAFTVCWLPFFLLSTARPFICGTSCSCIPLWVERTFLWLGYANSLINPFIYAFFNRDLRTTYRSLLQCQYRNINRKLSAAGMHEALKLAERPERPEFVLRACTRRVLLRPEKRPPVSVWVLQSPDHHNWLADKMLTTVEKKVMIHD
T3 sequence (P50406 whole entry): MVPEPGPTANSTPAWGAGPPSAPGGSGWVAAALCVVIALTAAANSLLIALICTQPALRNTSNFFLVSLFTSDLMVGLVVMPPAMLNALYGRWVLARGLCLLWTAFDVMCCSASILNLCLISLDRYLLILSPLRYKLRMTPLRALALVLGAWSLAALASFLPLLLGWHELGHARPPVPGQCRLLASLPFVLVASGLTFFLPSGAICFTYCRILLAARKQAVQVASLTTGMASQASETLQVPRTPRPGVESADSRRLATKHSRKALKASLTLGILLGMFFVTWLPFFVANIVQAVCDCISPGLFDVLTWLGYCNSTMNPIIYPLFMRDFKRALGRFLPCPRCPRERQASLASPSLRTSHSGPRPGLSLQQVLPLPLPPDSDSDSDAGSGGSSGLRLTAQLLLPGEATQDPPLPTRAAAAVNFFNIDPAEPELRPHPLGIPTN
T1 sequence (P25021 whole entry): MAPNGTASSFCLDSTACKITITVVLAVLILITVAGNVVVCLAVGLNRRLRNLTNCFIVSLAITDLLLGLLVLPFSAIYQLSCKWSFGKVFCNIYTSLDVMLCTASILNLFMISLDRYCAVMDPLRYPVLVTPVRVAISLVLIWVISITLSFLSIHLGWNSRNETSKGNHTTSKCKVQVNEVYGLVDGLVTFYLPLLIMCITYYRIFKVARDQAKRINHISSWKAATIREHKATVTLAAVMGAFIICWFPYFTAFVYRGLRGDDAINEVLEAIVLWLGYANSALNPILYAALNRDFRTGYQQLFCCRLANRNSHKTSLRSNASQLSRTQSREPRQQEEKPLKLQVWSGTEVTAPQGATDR
human dopamine D2L receptor, sequence (P14416 whole entry): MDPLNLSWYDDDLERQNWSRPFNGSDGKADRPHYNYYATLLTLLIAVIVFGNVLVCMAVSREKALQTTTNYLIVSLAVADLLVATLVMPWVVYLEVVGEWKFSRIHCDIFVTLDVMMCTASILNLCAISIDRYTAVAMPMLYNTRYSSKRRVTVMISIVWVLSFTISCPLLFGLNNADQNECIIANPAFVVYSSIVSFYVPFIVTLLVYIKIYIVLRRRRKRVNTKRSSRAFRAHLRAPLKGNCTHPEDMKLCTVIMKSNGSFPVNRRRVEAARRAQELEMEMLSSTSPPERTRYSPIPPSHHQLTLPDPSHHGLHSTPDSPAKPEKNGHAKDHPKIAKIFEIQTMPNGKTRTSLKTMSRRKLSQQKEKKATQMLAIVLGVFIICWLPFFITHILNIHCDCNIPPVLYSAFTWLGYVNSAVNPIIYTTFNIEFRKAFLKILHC
T2 sequence (P28223 whole entry): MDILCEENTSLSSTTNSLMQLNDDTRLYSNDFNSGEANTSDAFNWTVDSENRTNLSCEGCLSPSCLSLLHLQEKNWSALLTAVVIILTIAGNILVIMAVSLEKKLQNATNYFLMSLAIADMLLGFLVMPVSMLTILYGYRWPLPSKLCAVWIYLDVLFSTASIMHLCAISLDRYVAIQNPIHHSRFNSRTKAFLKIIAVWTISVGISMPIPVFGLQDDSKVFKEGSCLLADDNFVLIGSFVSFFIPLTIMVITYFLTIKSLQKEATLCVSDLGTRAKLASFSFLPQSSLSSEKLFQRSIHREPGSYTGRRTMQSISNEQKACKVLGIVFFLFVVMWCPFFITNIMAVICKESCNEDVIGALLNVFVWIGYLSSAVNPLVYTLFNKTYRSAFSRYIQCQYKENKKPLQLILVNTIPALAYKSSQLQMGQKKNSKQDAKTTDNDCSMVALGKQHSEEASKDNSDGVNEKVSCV

With `C/C(=C/n1c2c(c3cc(C)ccc31)CN(C)CC2)c1ccncc1` [Compound 224, (Z)-2,8-dimethyl-5-(2-(pyridin-4-yl)prop-1-enyl)-2,3,4,5-tetrahydro-1H-pyrido[4,3-b]indole], the inhibition at 1 µM stood at 58% in assay [1]; 99% in assay [2]; 102% in assay [3]; 65% in assay [4]; 91% in assay [5] (compound at 1 μM); 24% on histamine receptor H1. Moreover, in assay [7] (compound at 1 μM), the inhibition at 1 µM was 97%. The inhibition at 0.1 µM in assay [2] was found to be 92%; in assay [3] it was 96%; in assay [5], 88%; in assay [7] it was 95%. For the same molecule, in assay [4], the “Inhibition of ligand binding, Dopamine D2L” value (“Inhibition … Dopamine D2L” for short) turned out to be 80%. In addition, at histamine receptor H1, the “Histamine Binding (1 μM) H1, percent inhibition of specific binding” value turned out to be 26%. Further, the “5-HT1B (5 μM) % Binding relative to bound radioligand” value in assay [6] is recorded as 10%.
With `C/C(=C\n1c2c(c3cc(C)ccc31)CN(C)CC2)c1cccnc1` [Compound 91, (E)-2,3,4,5-tetrahydro-2,8-dimethyl-5-(2-(pyridin-3-yl)prop-1-enyl)-1H-pyrido[4,3-b]indole], the inhibition at 1 µM worked out at 52% in assay [1]; 98% in assay [2]; 76% in assay [3]; 27% in assay [4]; 95% in assay [5] (compound at 1 μM); 11% on histamine receptor H1. Further, the inhibition at 1 µM in assay [7] (compound at 1 μM) was 100%. For the same molecule, the IC50 in assay [6] was 365 nM. Besides, the “5-HT1B (5 μM) % Binding relative to bound radioligand” value in assay [6] is reported as 9%. The “% Binding relative to bound radioligand (5-HT1B)” value is reported as 120% in assay [6] (Conc. 0.08 nM); 129% in assay [6] (Conc. 5 nM); 113% in assay [6] (Conc. 20 nM); 103% in assay [6] (Conc. 78 nM); 66% in assay [6] (Conc. 313 nM); 31% in assay [6] (Conc. 1250 nM). The “% Binding relative to bound radioligand (5-HT1B)” value in assay [6] (Conc. 20000 nM) is 1%; in assay [6] (Conc. 50000 nM), −5%.
As to `C/C(=C\n1c2c(c3cccc(F)c31)CN(C)CC2)c1ccncc1` [Compound 223, (E)-6-fluoro-2-methyl-5-(2-(pyridin-4-yl)prop-1-enyl)-2,3,4,5-tetrahydro-1H-pyrido[4,3-b]indole], the inhibition at 1 µM was 44% in assay [1]; 95% in assay [2]; 103% in assay [3]; 96% in assay [4]; 91% in assay [5] (compound at 1 μM); 6% on histamine receptor H1. The inhibition at 1 µM in assay [7] (compound at 1 μM) stood at 93%. Moreover, the inhibition at 0.1 µM in assay [2] turned out to be 97%; in assay [3], 104%; in assay [5], 67%; in assay [7], 81%. Moreover, in assay [4], the “Inhibition … Dopamine D2L” value was found to be 97%. The “Histamine Binding (1 μM) H1, percent inhibition of specific binding” value on histamine receptor H1 amounted to 11%. The “5-HT1B (5 μM) % Binding relative to bound radioligand” value in assay [6] worked out at 4%.
As to `CN1CCc2c(c3cccc(Cl)c3n2CC(C)(O)c2ccncc2)C1` (centres unmarked) [Compound 182, 1-(6-chloro-2-methyl-3,4-dihydro-1H-pyrido[4,3-b]indol-5(2H)-yl)-2-(pyridin-4-yl)propan-2-ol], the inhibition at 1 µM in assay [1] was 53%; in assay [2], 91%; in assay [3] it was 47%; in assay [4], 8%; in assay [5] (compound at 1 μM), 54%; on histamine receptor H1, 26%. In addition, the inhibition at 1 µM in assay [7] (compound at 1 μM) was 93%. In addition, the “5-HT1B (5 μM) % Binding relative to bound radioligand” value in assay [6] turned out to be 3%.
Consider `C/C(=C\n1c2c(c3ccccc31)CN(C)CC2)c1ccncc1` [Compound 217, (E)-2-methyl-5-(2-(pyridin-4-yl)prop-1-enyl)-2,3,4,5-tetrahydro-1H-pyrido[4,3-b]indole], for which the inhibition at 1 µM in assay [1] amounted to 50%; in assay [2], 98%; in assay [3], 102%; in assay [4] it was 86%; in assay [5] (compound at 1 μM) it was 73%; in assay [7] (compound at 1 μM) it was 87%. Also, the inhibition at 0.1 µM was found to be 96% in assay [2], 97% in assay [3], 58% in assay [5] and 62% in assay [7]. In addition, the “Inhibition … Dopamine D2L” value in assay [4] came to 88%. Moreover, the “Inhibition of ligand binding, Serotonin 5-HT7 (percent inhibition of specific binding)” value in assay [5] (compound at 1 μM, 1 µM) is given as 91%. In assay [6], the “5-HT1B (5 μM) % Binding relative to bound radioligand” value was determined as 10%. Also, the “Inhibition of ligand binding, Serotonin 5-HT2C (percent inhibition of specific binding)” value in assay [7] (compound at 1 μM, 1 µM) turned out to be 92%.
As to `C/C(=C\n1c2c(c3cc(C)ccc31)CN(C)C(C)C2)c1ccc(C)nc1` (centres unmarked) [Compound 259, (E)-2,3,8-trimethyl-5-(2-(6-methylpyridin-3-yl)prop-1-enyl)-2,3,4,5-tetrahydro-1H-pyrido[4,3-b]indole], the inhibition at 0.1 µM in assay [2] came out at 96%; in assay [3], 21%; in assay [5], 81%; in assay [7], 92%. Besides, the results for the inhibition at 1 µM (in assay [4]; at histamine receptor H1) were -12% and 10%, respectively. Further, in assay [6], the “5-HT1B (5 μM) % Binding relative to bound radioligand” value is 25%.
